The record followed here is publication PMC4004260 (Biochemistry, 2014).

For experiment [1], the target named is cleaved gpASNase3 protomer (α- and β-subunit), Asp-bound (Cavia porcellus (guinea pig)). The experiment can be described thus: crystal structure.
Experiment [2] relates to gpASNase3 (guinea pig L-asparaginase type III). The experiment is described as follows: NADH-coupled spectrophotometric assay. The settings on record: glycine-activated (cleaved) enzyme; Tris pH 7.5, 37 °C. It counts as biochemical, Cavia porcellus.

In experiment [1], “cleaved gpASNase3 protomer (α- and β-subunit), Asp-bound (complex)” registered a stoichiometry N of 2. As to `N[C@@H](CC(=O)N[C@@H](Cc1ccccc1)C(=O)O)C(=O)O` [β-L-Asp-L-Phe], the Michaelis-Menten constant (Km) in experiment [2] was 410 ± 30 µM. For the compound `NC(=O)C[C@H](N)C(=O)O` [L-Asn], the Michaelis-Menten constant (Km) in experiment [2] came out at 2240 ± 140 µM.
